Paper PMC9291755, “The Effect of Food on the Pharmacokinetics of the Potassium‐Competitive Acid Blocker Vonoprazan” (Clinical Pharmacology in Drug Development, 2021)
Entries after “also recorded” stand apart in the source; their conditions may differ. Where two headings read alike, the source gives them in different places.

Tests used:
[1] = Safety/tolerability in the food-effect study (adverse events, vital signs, ECG, laboratory tests); details: for Incidence of AEs: single 20-mg dose, 24 subjects
Source text: Safety variables included physical examination findings; vital signs; electrocardiograms; clinical laboratory evaluations including hematology, chemistry, and urinalysis; and treatment‐emergent adverse events (AEs).
The safety analysis set comprised all enrolled subjects who received at least 1 dose of vonoprazan and was used for safety and baseline demographics summaries.

[2] = parameters: method as in PMID 17575528, PMID 21132072; details: no enteric coating required; cited from earlier work
[3] = Phase 1 randomized open-label crossover food-effect pharmacokinetic study, plasma vonoprazan by LC-MS/MS; assay type: in vivo, healthy Caucasian male and female subjects (human); details: for AUC / Cmax / tmax: po, 20 mg; for tmax: read-out: tmax, median (min, max)
Experimental: This was a randomized, open‐label, 2×2 crossover, phase 1 study stratified by gender in healthy Caucasian male and female subjects. The study was conducted at a single site in Northern Ireland (MDS Pharma Services, Belfast, Northern Ireland). The study was approved by an independent ethics committee (Edinburgh Independent Ethics Committee, Edinburgh, Scotland). Written informed consent was obtained from all subjects before study initiation.
The enrolled study population included 12 men and 14 women aged 18 to 45 years, of Caucasian ethnicity, considered eligible on the basis of study inclusion and exclusion criteria. To be eligible, subjects must have been in good health and have had clinical laboratory evaluations (including clinical chemistry, hematology, and urinalysis) within the reference range for the testing laboratory, or only minor deviations that were deemed by the investigator to be clinically nonsignificant. Additional inclusion criteria included a body mass index between 18 and 30 kg/m^2 and a willingness to provide written informed consent before any screening procedures; abstention from caffeine, alcohol, and strenuous exercise from 72 hours before dosing until the follow‐up call/visit; and use of adequate contraception from screening, throughout the study, and for 30 days following the last dose of study medication (applicable to female subjects of childbearing potential who were sexually active) or for 12 weeks after the follow‐up visit (applicable to male subjects with female partners, both of whom were required to use contraception). In addition to caffeine and alcohol, subjects who had received the following were excluded from participation: nicotine products 6 weeks before the first dose of study medication; antibiotics within 28 days prior to initial screening; prescription medication or St. John's wort, ginseng, kava, ginkgo biloba, melatonin, herbal or homeopathic preparations, or other nutriceuticals within 28 days before the first dose; over‐the‐counter medication including salicylates (except when approved on a case‐by‐case basis) or vitamin supplements within 14 days before the first dose; and grapefruit or grapefruit products, Seville oranges (sour) or products, or poppy seeds within 7 days before the first dose.
Subjects were randomized to either the fed/fasted state or fasted/fed state sequence, with randomization stratified by sex. Eligible subjects received a single 20‐mg dose of vonoprazan (given as two 10‐mg tablets) either following an overnight fast or 30 minutes after a breakfast (≈900 calories, with 62% of the calories from fat, 23% from carbohydrate, and 14% from protein).
After a 5‐day washout period, subjects received a second 20‐mg dose of vonoprazan in the alternative fed/fasted state, and the identical process was performed. During dosing in the fasted state, subjects fasted for 10 hours before receiving the study drug. During dosing in the fed state, subjects fasted for 10 hours and then consumed the breakfast, which was started 30 minutes before dosing and eaten in ≤30 minutes. Vonoprazan was taken with 240 mL of water, and subjects refrained from eating for 4 hours after dosing. Water (200 mL) was given to all subjects at 2 and 4 hours after dosing. All administrations of vonoprazan were taken under supervision.
Plasma concentrations of vonoprazan were determined using a liquid chromatography–tandem mass spectrometry assay with a validated concentration range of 0.1 to 100 ng/mL. A total of 864 samples were analyzed in 13 reported batches. The bioanalytical method utilized protein precipitation and extraction of plasma samples with acetonitrile‐formic acid (100:0.2, v/v) before analysis by liquid chromatography–tandem mass spectrometry. […]

[4] = system: cytochrome P450 (CYP) 3A4; parameters: method as in PMID 26369775, PMID 29383028, PMID 27414183; details: lesser extent by CYP2B6, CYP2C19, CYP2D6; cited from earlier work
[5] = cited from earlier work
[6] = parameters: method as in PMID 25707624; details: 20 mg once daily after ≥10-hour fast, cited from earlier work
[7] = parameters: method as in PMID 26369775; details: single 20 mg, cited from earlier work
gastric acid secretion = system: gastric acid secretion; parameters: method as in PMID 26111126; details: single doses ≥20 mg, clinical studies; cited from earlier work
[8] = parameters: method as in PMID 25707624, PMID 28198590, PMID 26193978, PMID 31990424; details: 212 healthy volunteers, daily doses up to 40 mg for up to 7 days; cited from earlier work
[9] = parameters: method as in PMID 25707624; details: 20 mg once daily after ≥10-hour fast, cited from earlier work; remark: listed apart in the source
[10] = single 20-mg doses, fed and fasted
[11] = 12 healthy Japanese adult men, unchanged vonoprazan

CNCc1cc(-c2ccccc2F)n(S(=O)(=O)c2cccnc2)c1.O=C(O)/C=C/C(=O)O [vonoprazan, 1‐[5‐(2‐fluorophenyl)‐1‐(pyridin‐3‐ylsulfonyl)‐1H‐pyrrol‐3‐yl]‐N‐methylmethanamine monofumarate]
Incidence of AEs ([1]; fasted state): 12.5% | Incidence of AEs ([1]; fed state): 8.3% | Tolerability ([1]; single 20-mg doses given on 2 occasions, healthy subjects): safe and well tolerated | Changes in liver function tests [1, 10]: no obvious treatment‐emergent changes | Changes in vital signs, 12-lead electrocardiograms, laboratory safety tests [1, 10]: no clinically important changes | Serious AEs and deaths during the study [1, 10]: No serious AEs and no deaths | Severity of reported AEs [1, 10]: mild | Number of adverse events ([1]; whole study, four subjects affected): 6 | acid stability [2]: acid stable | AUC ([3]; both sexes, human, plasma, single 20-mg oral dose, fasted, N = 24, read-out: AUC0‐24, least-squares mean): 154 ng·h/mL | AUC ([3]; both sexes, human, plasma, single 20-mg oral dose, fasted, N = 24, read-out: AUC0‐∞, least-squares mean): 171 ng·h/mL | Cmax ([3]; both sexes, human, plasma, single 20-mg oral dose, fasted, N = 24, read-out: Cmax, least-squares mean): 17.3 ng/mL | AUC ([3]; both sexes, human, plasma, single 20-mg oral dose, fasted, n = 24, plasma, read-out: AUC0‐24, mean (SD)): 161 ng·h/mL | AUC ([3]; both sexes, human, plasma, single 20-mg oral dose, fasted, n = 24, plasma, read-out: AUC0‐∞, mean (SD)): 179 ng·h/mL | Cmax ([3]; both sexes, human, plasma, single 20-mg oral dose, fasted, n = 24, plasma, read-out: Cmax, mean (SD)): 18.2 ng/mL | tmax ([3]; both sexes, human, plasma, single 20-mg oral dose, fasted, n = 24): 2 h | Cmax ([3]; both sexes, human, plasma, single 20-mg oral dose, fed (high-fat breakfast), n = 24, plasma, read-out: Cmax, mean (SD)): 18.9 ng/mL | AUC ([3]; both sexes, human, plasma, single 20-mg oral dose, fed, N = 24, read-out: AUC0‐24, least-squares mean): 174 ng·h/mL | AUC ([3]; both sexes, human, plasma, single 20-mg oral dose, fed, N = 24, read-out: AUC0‐∞, least-squares mean): 196 ng·h/mL | Cmax ([3]; both sexes, human, plasma, single 20-mg oral dose, fed, N = 24, read-out: Cmax, least-squares mean): 18.2 ng/mL | AUC ([3]; both sexes, human, plasma, single 20-mg oral dose, fed, n = 24, plasma, read-out: AUC0‐24, mean (SD)): 182 ng·h/mL | AUC ([3]; both sexes, human, plasma, single 20-mg oral dose, fed, n = 24, plasma, read-out: AUC0‐∞, mean (SD)): 206 ng·h/mL | tmax ([3]; both sexes, human, plasma, single 20-mg oral dose, fed, n = 24): 4 h | half-life ([3]; both sexes, human, plasma, single 20-mg oral dose, fed, n = 24, read-out: t1/2 (terminal elimination half-life), mean (SD) (converted)): 6.9 h | Effect of food on exposure ([3]; single 20-mg dose, fed vs fasted, CI within 80% to 125%): not meaningfully affected by food; also recorded: not materially affected by food | AUC0‐24, fed/fasted ratio of geometric (least-squares) means ([3]; single 20-mg oral dose, N = 24): 1.13 | AUC0‐∞, fed/fasted ratio of geometric (least-squares) means ([3]; single 20-mg oral dose, N = 24): 1.15 | Cmax, fed/fasted ratio of geometric (least-squares) means ([3]; single 20-mg oral dose, N = 24): 1.05 | t1/2 (terminal elimination half-life), mean (SD) ([3]; single 20-mg oral dose, fasted, n = 24): 6.9 (1.45) h | metabolizing enzymes [4]: primarily metabolized by cytochrome P450 (CYP) 3A4 | influence of CYP2C19 polymorphisms on pharmacokinetics ([5]; Japanese repeated-dose study and earlier phase 1 study): not influenced by CYP2C19 polymorphisms | accumulation in plasma after multiple doses ([5]; doses from 10 to 40 mg, days 1 and 7): little to no accumulation | median time of peak plasma concentrations (tmax) ([5]; oral, once-daily dosing): ≤ 2 h | tmax ([6]; day 1, UK study): 1.5 h | tmax ([6]; day 7, UK study): 1.1 h | AUC0‐48, fed/fasted ratio [7, 11]: 1.08 | Cmax, fed/fasted ratio [7, 11]: 1.09 | AUC0‐∞ ([7]; fasted state, Japanese men): 225.3 ng·h/mL | Cmax ([7]; fasted state, Japanese men): 24.3 ng/mL | median tmax ([7]; fasted state, Japanese men): 1.5 h | t1/2 ([7]; fasted state, Japanese men): 7.7 h | median tmax ([7]; fed state, Japanese men): 3.0 h | Tolerability (gastric acid secretion): well tolerated | duration of action (gastric acid secretion): 24 h | onset of action (gastric acid secretion): < 4 h | safety signals [8]: no safety signals | tmax ([9]; day 1, Japanese study): 1.5 h | tmax ([9]; day 7, Japanese study): 1.5 h
